≈ marks a conversion by molar mass, not a printed value. Where “and” joins values, the source holds several entries; their conditions need not be identical. Equal entries are not always repeated. Where two headings read alike, the source gives them in different places.
Legend:
[1] = test system: Mycobacterium tuberculosis H37Rv (ATCC 27294); assay: Primary screen, Microplate Alamar Blue Assay (MABA), percent inhibition; assay type: cell-based; conditions: primary screening at 6.25 μg/ml; for inhibition at 6.25 µg/mL: Mycobacterium tuberculosis
Protocol: (§1) The activity of the compounds of the present invention against Mycobacterium tuberculosis was determined using the following assays conducted by the National Institute of Allergy and Infectious Diseases (NIAID) supports a TB drug acquisition and screening program, the TAACF.
To determine the percent inhibition the following assay was conducted. Primary screening was conducted at 6.25 μg/ml (or the molar equivalent of highest molecular weight compound in a given series of congeners) against Mycobacterium tuberculosis H37Rv (ATCC 27294) in BACTEC 12B medium using the Microplate Alamar Blue Assay (MABA). See Collins, L. and S. G. Franzblau. 1997. Microplate alamar blue assay versus BACTEC 460 system for high-throughput screening of compounds against Mycobacterium tuberculosis and Mycobacterium avium. Antimicrob Agents Chemother 41:1004-9, which is herein incorporated by reference.
Minimum compound requirements: 1.0 mg.

[2] = test system: D6 and W2 P. falciparum clones; assay type: cell-based, Plasmodium falciparum; conditions: for Resistance Index: IC50 (W2)/IC50 (D6) ratio
M. tuberculosis H37Rv = assay: Minimum inhibitory concentration (MIC) in the MABA; assay type: cell-based, Mycobacterium tuberculosis
Protocol: as §1
2. Minimum Inhibitory Concentration (MIC)
The MIC is defined as the lowest concentration effecting a reduction in fluorescence of 90% relative to controls. Minimum compound requirements: 1.0 mg.

[3] = test system: Plasmodium falciparum chloroquine-resistant strain W2; assay: microbe, parasite or virus in culture; assay type: cell-based; conditions: for Strain W2 IC50: growth inhibition, chloroquine-resistant strain W2, 66 h incubation; for IC50: Plasmodium falciparum, W2, 66 h
[4] = test system: Plasmodium falciparum chloroquine-susceptible strain D6; assay: In vitro antimalarial drug susceptibility assay (radiolabeled hypoxanthine incorporation), strain D6; assay type: cell-based; conditions: for Strain D6 IC50: growth inhibition, chloroquine-susceptible strain D6, 66 h incubation; for IC50: Plasmodium falciparum, D6, 66 h
[5] = Table 5, Alamar assay, read-out: % Inhib
[6] = Mycobacterium tuberculosis, H37RV, Table 5, Alamar assay, M. tuberculosis H37Rv, read-out: MIC
[7] = Table 5, Alamar assay, M. tuberculosis H37Rv
[8] = read-out: Strain W2 IC50, growth inhibition, chloroquine-resistant strain W2, 66 h incubation
[9] = read-out: Strain D6 IC50, growth inhibition, chloroquine-susceptible strain D6, 66 h incubation

Row | Compound | Resistance Index [2] | Strain W2 IC50 [3] [µg/mL] | Strain D6 IC50 [4] [µg/mL] | % Inhib ([1]; Table 5, Alamar assay) [%] | MIC (M. tuberculosis H37Rv; [7]) [µg/mL] | other results
1 | COC(=O)CCC(C)[C@H]1CCC2C3C(C[C@H](OC(C)=O)[C@@]21C)[C@@]1(C)CCC2(C[C@H]1C[C@H]3OC(C)=O)OOC1(CCC(C)CC1)OO2 (mixture of isomers) [8g/1B08a, Methyl 7α,12α-diacetoxy-5β-cholan-24-oate-3-spiro-6′-(1′,2′,4′,5′-tetraoxacyclohexane)-3′-spiro-1″-((4″R)- and (4″S)-methyl)cyclohexane] | 0.50 | 0.00327 | 0.00648 | – | – | inhibition at 6.25 µg/mL ([1]; Table 3, H37Rv, read-out: Inhibition (%)): 29%; inhibition at 6.25 µg/mL [1, 5]: 29%; MIC (M. tuberculosis H37Rv; Mycobacterium tuberculosis, H37RV, Table 3, H37Rv, read-out: MIC): > 6.25 µg/mL and > 9.63 µM; MIC (M. tuberculosis H37Rv; [6]): > 6.25 µg/mL
2 | COC(=O)CCC(C)[C@H]1CCC2C3C(C[C@H](OC(C)=O)[C@@]21C)[C@@]1(C)CCC2(C[C@H]1C[C@H]3OC(C)=O)OOC1(CCC(C)CC1)OO2 (mixture of isomers) [8h/1B08b, Methyl 7α,12α-diacetoxy-5β-cholan-24-oate-3-spiro-6′-(1′,2′,4′,5′-tetraoxacyclohexane)-3′-spiro-1″-((4″R)- and (4″S)-methyl)cyclohexane] | 0.53 | 0.00854 | 0.01599 | 38 | >6.25 | –
3 | CCC1CCC2(CC1)OOC1(CC[C@]3(C)C4C[C@H](OC(C)=O)[C@@]5(C)C(CC[C@@H]5C(C)CCC(=O)OC)C4[C@H](OC(C)=O)C[C@@H]3C1)OO2 (single isomer, unassigned) [8i/1B13a, Methyl 7α,12α-diacetoxy-5β-cholan-24-oate-3-spiro-6′-(1′,2′,4′,5′-tetraoxacyclohexane)-3′-spiro-1″-((4″R or S)- and (4″S or R)-ethyl)cyclohexane] | 2.10 | – | 0.00446 | – | – | inhibition at 6.25 µg/mL [1, 5]: 62%; MIC (M. tuberculosis H37Rv; [6]): > 6.25 µg/mL; IC50 [3, 8]: 0.00939 µg/mL (≈ 0.0142 µM)
4 | CCC1CCC2(CC1)OOC1(CC[C@]3(C)C4C[C@H](OC(C)=O)[C@@]5(C)C(CC[C@@H]5C(C)CCC(=O)OC)C4[C@H](OC(C)=O)C[C@@H]3C1)OO2 (single isomer, unassigned) [8j/1B13b, Methyl 7α,12α-diacetoxy-5β-cholan-24-oate-3-spiro-6′-(1′,2′,4′,5′-tetraoxacyclohexane)-3′-spiro-1″-((4″R or S)- and (4″S or R)-ethyl)cyclohexane] | 1.60 | 0.01876 | 0.01173 | 65 | >6.25 | –
5 | COC(=O)CCC(C)[C@H]1CCC2C3C(C[C@H](OC(C)=O)[C@@]21C)[C@@]1(C)CCC2(C[C@H]1C[C@H]3OC(C)=O)OOC1(CCC(C(C)(C)C)CC1)OO2 (single isomer, unassigned) [8k/1B09a, Methyl 7α,12α-diacetoxy-5β-cholan-24-oate-3-spiro-6′-(1′,2′,4′,5′-tetraoxacyclohexane)-3′-spiro-1″-(4″R or S)- and (4″S or R)-t-butyl)cyclohexane] | 0.49 | – | 0.07426 | – | – | % Inhib ([1]; Table 5, Alamar assay, listed as 8g 1B09a): 32%; MIC (M. tuberculosis H37Rv; Mycobacterium tuberculosis, H37RV, Table 5, Alamar assay, M. tuberculosis H37Rv): > 6.25 µg/mL; IC50 [3, 8]: 0.0364 µg/mL (≈ 0.0527 µM)
6 | COC(=O)CCC(C)[C@H]1CCC2C3C(C[C@H](OC(C)=O)[C@@]21C)[C@@]1(C)CCC2(C[C@H]1C[C@H]3OC(C)=O)OOC1(CCC(C(C)(C)C)CC1)OO2 (single isomer, unassigned) [8l/1B09b, Methyl 7α,12α-diacetoxy-5β-cholan-24-oate-3-spiro-6′-(1′,2′,4′,5′-tetraoxacyclohexane)-3′-spiro-1″-(4″R or S)- and (4″S or R)-t-butyl)cyclohexane] | 0.54 | 0.01919 | 0.03584 | 0 | >6.25 | times more active than bis(1,1-dioxy-4-tert-butylcyclohexane) ([2]; antimalarial activity versus literature tetraoxane): ca. 3.7 times
7 | CCC1CCC2(CC1)OOC1(CC[C@]3(C)C4C[C@H](OC(C)=O)[C@@]5(C)C(CC[C@@H]5C(C)CCC(=O)O)C4[C@H](OC(C)=O)C[C@@H]3C1)OO2 (single isomer, unassigned) [9i/1C34, 7α,12α-Diacetoxy-5β-cholan-24-oic acid-3-spiro-6′-(1′,2′,4′,5′-tetraoxacyclohexane)-3′-spiro-1″-((4″R or S)-ethyl)cyclohexane] | 1.26 | – | – | – | – | inhibition at 6.25 µg/mL [1, 5]: 80%; MIC (M. tuberculosis H37Rv; [6]): > 6.25 µg/mL; IC50 [3, 8]: 0.00471 µg/mL (≈ 0.00726 µM); IC50 [4, 9]: 0.00374 µg/mL (≈ 0.00576 µM)
8 | CCC1CCC2(CC1)OOC1(CC[C@]3(C)C4C[C@H](OC(C)=O)[C@@]5(C)C(CC[C@@H]5C(C)CCC(N)=O)C4[C@H](OC(C)=O)C[C@@H]3C1)OO2 (single isomer, unassigned) [29/1C40, 7α,12α-Diacetoxy-5β-cholan-24-amide-3-spiro-6′-(1′,2′,4′,5′-tetraoxacyclohexane)-3′-spiro-1″-((4″S or R)-ethyl)cyclohexane] | 0.40 | 0.00811 | 0.02012 | 100 | 3.13 (≈ 4.83 µM) | –
9 | CCNC(=O)CCC(C)[C@H]1CCC2C3C(C[C@H](OC(C)=O)[C@@]21C)[C@@]1(C)CCC2(C[C@H]1C[C@H]3OC(C)=O)OOC1(CCC(CC)CC1)OO2 (single isomer, unassigned) [31/1C42, N-Ethyl-7α,12α-Diacetoxy-5β-cholan-24-amide-3-spiro-6′-(1′,2′,4′,5′-tetraoxacyclohexane)-3′-spiro-1″-((4″S or R)-ethyl)cyclohexane] | 0.78 | 0.01222 | 0.01564 | 83 | >6.25 | –
10 | CCCNC(=O)CCC(C)[C@H]1CCC2C3C(C[C@H](OC(C)=O)[C@@]21C)[C@@]1(C)CCC2(C[C@H]1C[C@H]3OC(C)=O)OOC1(CCC(CC)CC1)OO2 (single isomer, unassigned) [32/1C43, N-(n-Propyl)-7α,12α-Diacetoxy-5β-cholan-24-amide-3-spiro-6′-(1′,2′,4′,5′-tetraoxacyclohexane)-3′-spiro-1″-((4″S or R)-ethyl)cyclohexane] | 1.36 | 0.08464 | 0.0622 | 71 | >6.25 | antimalarial activity in words ([2]; D6 and W2 clones, Table 2): inactive
11 | COC(=O)CCC(C)[C@H]1CCC2C3C(C[C@H](OC(C)=O)[C@@]21C)[C@@]1(C)CCC2(C[C@H]1C[C@H]3OC(C)=O)OOC1(CCC(c3ccccc3)CC1)OO2 (single isomer, unassigned) [Compound 1B14b, Methyl 7α,12α-diacetoxy-5β-cholan-24-oate-3-spiro-6′-(1′,2′,4′,5′-tetraoxacyclohexane)-3′-spiro-1″-((4″R or S)- and (4″S or R)-phenyl)cyclohexane] | 0.79 | 0.025 | 0.03176 | 46 | >6.25 | Inhibition (%) ([1]; Table 3, H37Rv): 46%; MIC (M. tuberculosis H37Rv; Table 3, H37Rv): >6.25 µg/mL
12 | CCN(CC)CCCC(C)Nc1ccnc2cc(Cl)ccc12 (stereo not shown) [Chloroquine, reference compound] | – | – | – | – | – | IC50 ([3]; read-out: Strain W2 IC50): 0.0883 µg/mL (≈ 0.276 µM); IC50 ([4]; read-out: Strain D6 IC50): 0.00371 µg/mL (≈ 0.0116 µM)
13 | OC(c1cc(C(F)(F)F)nc2c(C(F)(F)F)cccc12)C1CCCCN1 (stereo not shown) [Mefloquine, reference compound] | – | – | – | – | – | IC50 [4, 9]: 0.0106 µg/mL (≈ 0.0281 µM)
14 | Methyl 7α,12α-diacetoxy-5β-cholan-24-oate-3-spiro-6′-(1′,2′,4′,5′-tetraoxacyclohexane)-3′-spiro-1″-((4″R or S)- and (4″S or R)-ethoxycarbonyl)cyclohexane [Compound 1B12a] | 1.87 | 0.01256 | 0.00672 | – | – | –
15 | Methyl 7α,12α-diacetoxy-5β-cholan-24-oate-3-spiro-6′-(1′,2′,4′,5′-tetraoxacyclohexane)-3′-spiro-1″-((4″R or S)- and (4″S or R)-ethoxycarbonyl)cyclohexane [Compound 1B12b] | 1.77 | 0.05492 | 0.03101 | – | – | –

Reference: patent publication US6906098B2, “Mixed steroidal 1,2,4,5-tetraoxane compounds and methods of making and using thereof” (priority 2002, dated 2005)
